Test results taken from patent US20240124504A1, “AROMATIC HETEROCYCLIC COMPOUND, AND PHARMACEUTICAL COMPOSITION AND APPLICATION THEREOF” (GT APEIRON THERAPEUTICS LIMITED, priority 2020, published 2024).

What was measured:
[1] = molecular target: CDK7/cyclinH/MAT1 complex (Homo sapiens, UniProt P50613); test: In-vitro enzymatic inhibitory activity testing, CDK7 inhibition assay (Caliper EZ Reader II); format: biochemical; conditions: CDK7/cyclinH/MAT1 6 nM, 180 min at 27° C.
Outline: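 Enzyme preincubated 10 min with compound, then peptide substrate plus ATP added in 80 mM MES pH 6.5, 10 mM MgCl2 buffer; 180 min at 27 °C, stopped with EDTA.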

[2] = molecular target: CDK2/cyclinE1 complex (Homo sapiens, UniProt P24941); test: In-vitro enzymatic inhibitory activity testing, CDK2 inhibition assay (Caliper EZ Reader II); format: biochemical; conditions: CDK2/cyclinE1 0.5 nM, 180 min at 27° C.
Outline: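 CDK2/cyclinE1 (0.5 nM) phosphorylated 5-FAM-CDK7tide (2 μM) in MES buffer pH 6.5 with MgCl2, Tween 20 and BSA. Substrate and product were separated electrophoretically on a Caliper EZ Reader II. IC50 values came from nonlinear dose-response fits.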

[3] = molecular target: CDK9/cyclinT1 complex (Homo sapiens, UniProt P50750); test: In-vitro enzymatic inhibitory activity testing, CDK9 inhibition assay (Caliper EZ Reader II); format: biochemical; conditions: CDK9/cyclinT1 8 nM, 180 min at 27° C.
Chain of CDK9/cyclinT1 complex (P50750 whole entry, species assumed): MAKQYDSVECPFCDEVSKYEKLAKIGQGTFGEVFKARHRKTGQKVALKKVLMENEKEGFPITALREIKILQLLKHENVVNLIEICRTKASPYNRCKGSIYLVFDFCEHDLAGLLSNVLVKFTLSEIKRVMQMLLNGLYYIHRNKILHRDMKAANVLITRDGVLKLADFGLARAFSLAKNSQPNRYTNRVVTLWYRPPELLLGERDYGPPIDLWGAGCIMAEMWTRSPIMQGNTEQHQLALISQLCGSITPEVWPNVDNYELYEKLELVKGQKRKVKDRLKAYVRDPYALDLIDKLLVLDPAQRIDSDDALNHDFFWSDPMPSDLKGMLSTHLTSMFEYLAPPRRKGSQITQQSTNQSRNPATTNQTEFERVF
Chain of CDK9/cyclinT1 complex (O60563 whole entry partner, species assumed): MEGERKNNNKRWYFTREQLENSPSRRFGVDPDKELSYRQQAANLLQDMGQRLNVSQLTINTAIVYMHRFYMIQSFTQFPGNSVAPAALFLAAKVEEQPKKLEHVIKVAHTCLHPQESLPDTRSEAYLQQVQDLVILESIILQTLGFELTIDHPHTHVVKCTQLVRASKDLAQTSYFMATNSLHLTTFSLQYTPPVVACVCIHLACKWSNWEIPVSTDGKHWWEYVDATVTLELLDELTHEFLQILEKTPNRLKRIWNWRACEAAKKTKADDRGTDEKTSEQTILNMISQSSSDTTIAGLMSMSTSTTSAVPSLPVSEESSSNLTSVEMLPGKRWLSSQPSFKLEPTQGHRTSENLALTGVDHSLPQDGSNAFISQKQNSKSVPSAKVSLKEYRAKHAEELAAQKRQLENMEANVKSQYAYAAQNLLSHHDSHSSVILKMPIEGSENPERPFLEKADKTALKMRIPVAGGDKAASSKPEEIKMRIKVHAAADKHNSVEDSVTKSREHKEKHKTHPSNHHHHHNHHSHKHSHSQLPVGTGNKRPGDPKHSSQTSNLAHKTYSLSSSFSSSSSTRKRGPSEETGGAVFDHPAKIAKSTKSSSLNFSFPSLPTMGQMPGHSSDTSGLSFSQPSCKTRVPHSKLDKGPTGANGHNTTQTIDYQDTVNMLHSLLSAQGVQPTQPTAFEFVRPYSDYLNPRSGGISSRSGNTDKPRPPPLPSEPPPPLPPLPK
Outline: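 Phosphorylated and unphosphorylated fluorescent peptide were resolved by mobility-shift electrophoresis, with IC50 taken from a nonlinear regression of dose-response data. Reactions ran 180 min at 27 °C in MES buffer pH 6.5 with MgCl2, after 10 min enzyme–compound preincubation, using 8 nM CDK9/cyclinT1 and 5-FAM-CDK9tide.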

[4] = molecular target: T1, CDK12 (aa686-1082)/cyclinK complex (Homo sapiens, UniProt Q9NYV4); test: In-vitro enzymatic inhibitory activity testing, CDK12 inhibition assay (Caliper EZ Reader II); format: biochemical; conditions: CDK12/cyclinK 50 nM, 180 min at 27° C.; read-out: CDK12 IC50
T1 construct: A CDK12 (aa686-1082)/cyclinK complex (50 nM)
T1 sequence (Q9NYV4 686-1082, species assumed): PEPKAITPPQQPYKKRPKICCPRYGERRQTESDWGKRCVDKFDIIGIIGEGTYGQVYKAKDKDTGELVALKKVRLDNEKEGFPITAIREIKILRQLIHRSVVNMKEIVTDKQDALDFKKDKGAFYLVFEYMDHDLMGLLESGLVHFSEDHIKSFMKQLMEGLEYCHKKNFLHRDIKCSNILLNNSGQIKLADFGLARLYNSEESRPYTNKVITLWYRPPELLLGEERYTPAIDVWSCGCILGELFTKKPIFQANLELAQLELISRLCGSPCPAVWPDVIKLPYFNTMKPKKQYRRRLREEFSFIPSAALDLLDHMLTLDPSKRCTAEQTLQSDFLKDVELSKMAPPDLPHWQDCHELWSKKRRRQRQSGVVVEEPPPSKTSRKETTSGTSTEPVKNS
T1 sequence (O75909 whole entry partner, species assumed, the tested form may be a part): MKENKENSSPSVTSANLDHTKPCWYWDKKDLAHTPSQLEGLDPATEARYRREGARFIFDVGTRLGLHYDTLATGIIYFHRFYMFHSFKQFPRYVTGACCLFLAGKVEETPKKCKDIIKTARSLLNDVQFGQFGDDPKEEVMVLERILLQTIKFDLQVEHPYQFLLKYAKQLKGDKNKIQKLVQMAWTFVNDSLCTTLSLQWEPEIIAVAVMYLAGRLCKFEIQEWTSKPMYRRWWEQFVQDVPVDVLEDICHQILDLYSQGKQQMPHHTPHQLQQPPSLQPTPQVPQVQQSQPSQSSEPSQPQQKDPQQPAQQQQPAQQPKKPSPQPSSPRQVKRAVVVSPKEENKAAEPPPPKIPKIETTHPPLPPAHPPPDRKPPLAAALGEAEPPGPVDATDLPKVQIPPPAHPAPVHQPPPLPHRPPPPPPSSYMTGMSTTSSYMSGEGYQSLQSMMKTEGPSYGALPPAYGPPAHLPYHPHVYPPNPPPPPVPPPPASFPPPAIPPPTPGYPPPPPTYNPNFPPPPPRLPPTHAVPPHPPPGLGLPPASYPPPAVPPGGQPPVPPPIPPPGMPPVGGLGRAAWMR
Outline: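 CDK12 (aa686-1082)/cyclinK complex at 50 nM was pre-incubated with compound for 10 min, then reacted 180 min at 27° C with ATP and 2 μM 5-FAM-CDK9tide in pH 6.5 MES buffer with 10 mM MgCl2. Reactions were EDTA-quenched and product resolved electrophoretically; IC50 from nonlinear curve fit.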

[5] = system: human breast cancer cells HCC70; test: Cell biological activity detection (CyQuant, 72 hours), HCC70; format: cell-based; conditions: Homo sapiens, HCC70, 72 h, incubation for 72 hours
Outline: (§1)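 IC50 derived from CyQuant Direct nuclear staining (488 nm excitation) after 72 h compound exposure at 37 °C, 5% CO2. Compounds tested in 9 concentrations from 10 μM, 1:4 steps, 0.2% DMSO, on A2780 or HCC70 cells plated overnight at 2000/well in RPMI 1640 + 10% FBS.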

[6] = system: ovarian cancer A2780; test: Cell biological activity detection (CyQuant, 72 hours), A2780; format: cell-based, human; conditions: Homo sapiens, A2780, 72 h, A2780 cells, incubation for 72 hours
Outline: as §1

Chain of CDK7/cyclinH/MAT1 complex (P50613 whole entry, species assumed): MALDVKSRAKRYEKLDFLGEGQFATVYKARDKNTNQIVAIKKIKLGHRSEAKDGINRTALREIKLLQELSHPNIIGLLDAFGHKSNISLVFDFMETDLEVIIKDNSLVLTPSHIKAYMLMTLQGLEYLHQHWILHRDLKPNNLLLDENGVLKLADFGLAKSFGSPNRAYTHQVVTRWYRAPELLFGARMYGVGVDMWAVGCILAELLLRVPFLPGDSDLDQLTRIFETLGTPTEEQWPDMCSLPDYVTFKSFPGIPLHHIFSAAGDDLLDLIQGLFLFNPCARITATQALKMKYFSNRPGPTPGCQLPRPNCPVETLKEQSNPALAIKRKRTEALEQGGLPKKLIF
Chain of CDK7/cyclinH/MAT1 complex (P51946 whole entry partner, species assumed): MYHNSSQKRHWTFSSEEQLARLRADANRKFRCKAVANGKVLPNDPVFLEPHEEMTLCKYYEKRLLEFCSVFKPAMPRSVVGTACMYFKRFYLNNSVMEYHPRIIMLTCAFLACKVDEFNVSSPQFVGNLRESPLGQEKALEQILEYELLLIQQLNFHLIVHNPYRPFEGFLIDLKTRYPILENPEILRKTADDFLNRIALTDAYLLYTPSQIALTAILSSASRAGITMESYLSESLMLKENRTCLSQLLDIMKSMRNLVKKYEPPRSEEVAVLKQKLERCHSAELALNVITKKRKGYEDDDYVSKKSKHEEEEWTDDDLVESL
Chain of CDK7/cyclinH/MAT1 complex (P51948 whole entry partner, species assumed): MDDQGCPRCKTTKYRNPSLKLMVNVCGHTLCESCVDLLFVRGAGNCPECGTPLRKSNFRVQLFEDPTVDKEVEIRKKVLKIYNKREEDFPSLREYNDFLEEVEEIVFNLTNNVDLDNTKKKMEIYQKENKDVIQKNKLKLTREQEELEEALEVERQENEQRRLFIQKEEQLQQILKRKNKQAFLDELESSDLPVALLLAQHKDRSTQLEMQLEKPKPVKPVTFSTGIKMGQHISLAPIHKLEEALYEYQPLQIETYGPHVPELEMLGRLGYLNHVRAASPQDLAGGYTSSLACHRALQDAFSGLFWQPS

Structure (SMILES)	IC50 [1] [µM]	IC50 [2] [µM]	IC50 [3] [µM]	IC50 [4] [µM]	IC50 [5] [µM]	IC50 [6] [µM]
FC(F)(F)c1cnc(N[C@@H]2CCC23CNC3)nc1-c1c[nH]c2nc(N3CCOCC3)ccc12 [Compound 59, (R)—N-(4-(6-morpholinyl-1H-pyrrolo[2,3-b]pyridin-3-yl)-5-(trifluoromethyl)pyrimidin-2-yl)-2-azaspiro[3.3]heptan-5-amine]	< 0.02	5 to 50	5 to 50	> 50	0.02 to 0.2	0.02 to 0.2
CC1(C)COCC(Nc2ncc(C(F)(F)F)c(-c3c[nH]c4nc(C#N)ccc34)n2)CN1 (stereo not drawn) [Compound 62, 3-(2-((3,3-dimethyl-1,4-oxazepan-6-yl)amino)-5-(trifluoromethyl)pyrimidin-4-yl)-1H-pyrrolo[2,3-b]pyridine-6-carbonitrile]	0.02 to 0.2	> 50	> 50	5 to 50	0.2 to 5	0.2 to 5
N#Cc1ccc2c(-c3nc(N[C@H]4CC[C@H](N)C4)ncc3C(F)(F)F)c[nH]c2n1 [Compound 65, 3-(2-(((1S,3S)-3-aminocyclopentyl)amino)-5-(trifluoromethyl)pyrimidin-4-yl)-1H-pyrrolo[2,3-b]pyridine-6-carbonitrile]	< 0.02	5 to 50	5 to 50	5 to 50	0.02 to 0.2	0.02 to 0.2
CN(C)[C@H]1CC[C@H](Nc2ncc(C(F)(F)F)c(-c3c[nH]c4nc(C#N)ccc34)n2)C1 [Compound 66]	0.02 to 0.2	0.2 to 5	5 to 50	0.2 to 5	< 0.02	0.02 to 0.2
C[C@H]1COCCN1c1ccc2c(-c3nc(N[C@@H]4CCC45CNC5)ncc3C(F)(F)F)c[nH]c2n1 [Compound 67, (R)—N-(4-(6-((S)-3-methylmorpholine)-1H-pyrrolo[2,3-b]pyridin-3-yl)-5-(trifluoromethyl)pyrimidin-2-yl)-2-azaspiro[3.3]heptan-5-amine]	< 0.02	5 to 50	5 to 50	5 to 50	0.02 to 0.2	0.02 to 0.2
C[C@H]1COCCN1c1ccc2c(-c3nc(N[C@H]4CC[C@@H](N)C4)ncc3C(F)(F)F)c[nH]c2n1 [Compound 68, (1S,3R)—N1-(4-(6-((S)-3-methylmorpholinyl)-1H-pyrrolo[2,3-b]pyridin-3-yl)-5-(trifluoromethyl)pyrimidin-2-yl)cyclopentan-1,3-diamine]	0.02 to 0.2	5 to 50	5 to 50	5 to 50	0.2 to 5	0.2 to 5
CC1(C)COCC(Nc2ncc(C(F)(F)F)c(-c3c[nH]c4c(P(C)(C)=O)c(C#N)ccc34)n2)CN1 (stereo not drawn) [Compound 76, 3-(2-((3,3-dimethyl-1,4-oxazepan-6-yl)amino)-5-(trifluoromethyl)pyrimidin-4-yl)-7-(dimethylphosphoryl)-1H-indole-6-carbonitrile]	0.02 to 0.2	> 50	> 50	> 50	0.02 to 0.2	0.02 to 0.2
CP(C)(=O)c1c(C#N)ccc2c(-c3nc(N[C@@H]4CCC45CNC5)ncc3C(F)(F)F)c[nH]c12 [Compound 77, (R)-3-(2-((2-azaspiro[3.3]heptan-5-yl)amino)-5-(trifluoromethyl)pyrimidin-4-yl)-7-(dimethylphosphoryl)-1H-indole-6-carbonitrile]	0.02 to 0.2	> 50	> 50	> 50	0.02 to 0.2	0.02 to 0.2
CP(C)(=O)c1c(C#N)ccc2c(-c3nc(N[C@H]4CC[C@H](N)C4)ncc3C(F)(F)F)c[nH]c12 [Compound 78, 3-(2-(((1S,3S)-3-aminocyclopentyl)amino)-5-(trifluoromethyl)pyrimidin-4-yl)-7-(dimethylphosphoryl)-1H-indole-6-carbonitrile]	< 0.02	5 to 50	5 to 50	5 to 50	< 0.02	< 0.02
CP(C)(=O)c1cccc2c(-c3nc(N[C@@H]4CCC45CNC5)ncc3C(F)(F)F)c[nH]c12 [Compound 80]	< 0.02	0.2 to 5	5 to 50	5 to 50	< 0.02	< 0.02
